In the NIST ThermoML archive (doi:10.1016/j.jct.2013.06.009):

Assay: mn = molality of the nth substance listed, in mol/kg
Conditions: 101.33 kPa, Liquid; for viscosity: Capillary tube (Ostwald / Ubbelohde) method; for mass density: Vibrating tube method

CO/N=C(\C(=O)N[C@@H]1C(=O)N2C(C(=O)O)=C(C[N+]3(C)CCCC3)CS[C@H]12)c1csc(N)n1.Cl.[Cl-] [cefepime dihydrochloride] + O
Conditions	mass density [kg/m3]	viscosity [mPa·s]
278.15 K, m1 = 0.01005	1002	1.544
278.15 K, m1 = 0.02017	1004.01	1.57
278.15 K, m1 = 0.0304	1006.02	1.597
278.15 K, m1 = 0.05103	1009.98	1.649
278.15 K, m1 = 0.07222	1013.97	1.705
278.15 K, m1 = 0.09333	1017.86	1.766
278.15 K, m1 = 0.1154	1021.84	1.824
278.15 K, m1 = 0.1343	1025.19	1.88
278.15 K, m1 = 0.1521	1028.29	1.937
283.15 K, m1 = 0.01005	1001.73	1.324
283.15 K, m1 = 0.02017	1003.73	1.348
283.15 K, m1 = 0.0304	1005.73	1.371
283.15 K, m1 = 0.05103	1009.67	1.416
283.15 K, m1 = 0.07222	1013.62	1.463
283.15 K, m1 = 0.09333	1017.47	1.517
283.15 K, m1 = 0.1154	1021.4	1.566
283.15 K, m1 = 0.1343	1024.71	1.613
283.15 K, m1 = 0.1521	1027.79	1.663
288.15 K, m1 = 0.01005	1001.11	1.148
288.15 K, m1 = 0.02017	1003.1	1.17
288.15 K, m1 = 0.0304	1005.08	1.19
288.15 K, m1 = 0.05103	1008.98	1.228
288.15 K, m1 = 0.07222	1012.89	1.269
288.15 K, m1 = 0.09333	1016.7	1.316
288.15 K, m1 = 0.1154	1020.61	1.359
288.15 K, m1 = 0.1343	1023.89	1.4
288.15 K, m1 = 0.1521	1026.93	1.443
293.15 K, m1 = 0.01005	1000.2	1.013
293.15 K, m1 = 0.02017	1002.18	1.031
293.15 K, m1 = 0.0304	1004.15	1.049
293.15 K, m1 = 0.05103	1008.03	1.082
293.15 K, m1 = 0.07222	1011.91	1.12
293.15 K, m1 = 0.09333	1015.7	1.161
293.15 K, m1 = 0.1154	1019.57	1.199
293.15 K, m1 = 0.1343	1022.82	1.235
293.15 K, m1 = 0.1521	1025.83	1.273
298.15 K, m1 = 0.01005	999.04	0.899
298.15 K, m1 = 0.02017	1001.01	0.9159
298.15 K, m1 = 0.0304	1002.97	0.9314
298.15 K, m1 = 0.05103	1006.84	0.9593
298.15 K, m1 = 0.07222	1010.7	0.9939
298.15 K, m1 = 0.09333	1014.46	1.029
298.15 K, m1 = 0.1154	1018.29	1.065
298.15 K, m1 = 0.1343	1021.51	1.096
298.15 K, m1 = 0.1521	1024.5	1.13
303.15 K, m1 = 0.01005	997.63	0.8046
303.15 K, m1 = 0.02017	999.59	0.8192
303.15 K, m1 = 0.0304	1001.53	0.8325
303.15 K, m1 = 0.05103	1005.38	0.8581
303.15 K, m1 = 0.07222	1009.21	0.8888
303.15 K, m1 = 0.09333	1012.95	0.9175
303.15 K, m1 = 0.1154	1016.75	0.9513
303.15 K, m1 = 0.1343	1019.94	0.9813
303.15 K, m1 = 0.1521	1022.9	1.01
308.15 K, m1 = 0.01005	996.01	0.7235
308.15 K, m1 = 0.02017	997.96	0.7352
308.15 K, m1 = 0.0304	999.9	0.7465
308.15 K, m1 = 0.05103	1003.71	0.7718
308.15 K, m1 = 0.07222	1007.53	0.7974
308.15 K, m1 = 0.09333	1011.24	0.8261
308.15 K, m1 = 0.1154	1015.02	0.8553
308.15 K, m1 = 0.1343	1018.18	0.881
308.15 K, m1 = 0.1521	1021.12	0.904
313.15 K, m1 = 0.01005	994.18	0.6561
313.15 K, m1 = 0.02017	996.12	0.6652
313.15 K, m1 = 0.0304	998.04	0.6753
313.15 K, m1 = 0.05103	1001.85	0.6976
313.15 K, m1 = 0.07222	1005.64	0.7193
313.15 K, m1 = 0.09333	1009.33	0.7448
313.15 K, m1 = 0.1154	1013.07	0.7705
313.15 K, m1 = 0.1343	1016.22	0.7947
313.15 K, m1 = 0.1521	1019.14	0.8162
